Reference: PubChem BioAssay (NCI)
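1) Cells in 96-well plates. 2) Compound, 48 h, 5 concentrations. 3) Linear interpolation between surrounding doses. 4) Unreached endpoint = highest concentration. Here, GI50 denotes the concentration required for 50% inhibition of growth. TGI: total growth inhibition.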

Tests used:
Experiment in all cases: NCI anticancer screen, dose series, 48 h
OVCAR-8 ovarian = tested on: OVCAR-8 ovarian
LOX IMVI melanoma = tested on: LOX IMVI melanoma
SW-620 colon = tested on: SW-620 colon
UACC-62 melanoma = tested on: UACC-62 melanoma
MALME-3M melanoma = tested on: MALME-3M melanoma
HCC-2998 colon = tested on: HCC-2998 colon
SF-295 CNS = tested on: SF-295 CNS
K-562 leukemia = tested on: K-562 leukemia
786-0 renal = tested on: 786-0 renal
PC-3 prostate = tested on: PC-3 prostate

Structure (SMILES) | TGI (OVCAR-8 ovarian) [µM] | TGI (LOX IMVI melanoma) [µM] | TGI (SW-620 colon) [µM] | TGI (UACC-62 melanoma) [µM] | TGI (MALME-3M melanoma) [µM] | TGI (HCC-2998 colon) [µM] | TGI (SF-295 CNS) [µM] | TGI (K-562 leukemia) [µM] | TGI (786-0 renal) [µM] | GI50 (OVCAR-8 ovarian) [µM] | GI50 (LOX IMVI melanoma) [µM] | GI50 (SW-620 colon) [µM] | GI50 (UACC-62 melanoma) [µM] | GI50 (MALME-3M melanoma) [µM] | GI50 (HCC-2998 colon) [µM] | GI50 (SF-295 CNS) [µM] | GI50 (K-562 leukemia) [µM] | GI50 (786-0 renal) [µM] | TGI (PC-3 prostate) [µM] | GI50 (PC-3 prostate) [µM]
CC1=C(c2ccccc2)CON(c2ccccc2)C1 | > 100 | > 100 | > 100 | > 100 | > 100 | > 100 | > 100 | > 100 | > 100 |  |  |  |  |  |  |  |  |  |  | 
NC(=S)N/N=C1/C(=O)N(c2ccccc2)C(=O)C1C(=O)Nc1ccccc1 (stereo not drawn) | > 100 |  | > 100 | > 100 | > 100 | > 100 | > 100 |  | > 100 |  |  |  |  |  |  |  |  |  |  | 
COc1cc2ccnc(-c3n[nH]c4cc(OC)c(OC)cc34)c2cc1OC | > 100 | > 100 | > 100 | > 100 | > 100 | > 100 | > 100 | > 100 | > 100 |  |  |  |  |  |  |  |  |  |  | 
COC(=O)CCC(=O)Nc1cc(C)ccc1C | > 100 | > 100 | > 100 | > 100 | > 100 | > 100 | > 100 | > 100 | > 100 |  |  |  |  |  |  |  |  |  |  | 
Cc1c(-c2cc(-c3ccccc3)n[nH]c2=O)c2ccccc2n1C | > 100 |  | > 100 | > 100 | > 100 | > 100 | > 100 | > 100 | > 100 |  |  |  |  |  |  |  |  |  |  | 
C=CC(=O)OCCCS(=O)(=O)[O-].C=CC(=O)OCCCS(=O)(=O)[O-].NC1CCCCC1N.[Pt+4] | > 25 | > 25 | > 25 | > 25 | > 25 | > 25 | > 25 | > 25 | > 25 | > 25 | > 25 | > 25 | > 25 | > 25 | > 25 | > 25 | > 25 | > 25 |  | 
COc1cc2c(cc1OC)C(Cc1cc(Br)c(OC)c(OC)c1)=[N+](C)CC2 | > 100 | > 100 | > 100 | > 100 | > 100 | > 100 | > 100 | > 100 | > 100 |  |  |  |  |  |  |  |  |  |  | 
CC1=CC[C@@H]2C(=O)C=CC=C[C@H]12.[C-]#[O+].[C-]#[O+].[C-]#[O+].[Fe] | > 100 | > 100 |  | > 100 | > 100 | > 100 |  | > 100 | > 100 | > 100 | > 100 |  | > 100 | > 100 | > 100 |  | > 100 | > 100 |  | 
COc1ccccc1NC(=O)C1=C(C)NC(C)=C(C(=O)Nc2ccccc2OC)C1c1ccc(C2C(C(=O)Nc3ccccc3OC)=C(C)NC(C)=C2C(=O)Nc2ccccc2OC)cc1 | 7.52 | 2.67 | 4.06 | 3.26 | 7.94 | 3.56 | 6.28 | 13.2 | 4.22 |  |  |  |  |  |  |  |  |  |  | 
CSc1ccc(NC(=O)CCl)cc1 | > 10 | > 10 | > 10 | 3.65 |  | 7.19 | 5.1 | > 10 | > 10 |  |  |  |  |  |  |  |  |  | > 10 | 
Nc1ncnc2c1N=CN(Oc1ccccc1)N2 | > 100 |  | > 100 | > 100 | 32.2 |  | > 100 | > 100 | > 100 |  |  |  |  |  |  |  |  |  |  | 
CN(C)C(=S)/N=C(\N)N(C)C | > 100 | > 100 | > 100 | > 100 | > 100 | > 100 | > 100 | > 100 | > 100 |  |  |  |  |  |  |  |  |  |  | 
CC/C(=N/O)C(C)C(=O)CCC(=O)Nc1ccc(Cl)cc1 (stereo not drawn) | > 100 | > 100 | > 100 | > 100 | > 100 | > 100 | > 100 | > 100 | > 100 |  |  |  |  |  |  |  |  |  |  | 
OCC(O)C(OC1OC(CO)C(O)C(O)C1O)c1nn(-c2ccc(Cl)cc2)c2nc3cc(Cl)c(Cl)cc3nc12 (stereo not drawn) | > 100 | > 100 |  | > 100 | > 100 | > 100 | > 100 | > 100 | > 100 |  |  |  |  |  |  |  |  |  |  | 
O=C(/C=C/c1ccco1)N1CCN(Cc2ccccc2)CC1 | > 100 | > 100 | > 100 | > 100 |  | > 100 | > 100 |  | > 100 |  |  |  |  |  |  |  |  |  |  | 
COC(=O)c1ccc(N/C=C(/C#N)c2ccsc2)cc1 | 19.5 |  | 54.7 | 60.5 | 36.2 | 44.5 | 19.9 | > 100 | 23.3 |  |  |  |  |  |  |  |  |  |  | 
CCCCCCCCCCCc1cc(=O)c2c(O)cccc2o1 | > 100 | > 100 | > 100 | > 100 | > 100 | > 100 | > 100 | > 100 | > 100 |  |  |  |  |  |  |  |  |  |  | 
CC(C)CCCC(C)[C@H]1CCC2C3CC=C4C[C@@H](OC(=O)CC(CC(=O)[O-])C(=O)[O-])CC[C@]4(C)C3CC[C@@]21C.N.N.[Pt+4] (stereo partly drawn) | > 100 | > 100 | > 100 | > 100 |  |  | > 100 | > 100 | > 100 | > 100 | > 100 | > 100 | > 100 |  |  | > 100 | > 100 | > 100 |  | 
COc1ccc(OC)c(-c2nc3sc(C)cn3c2/C=C2\C(=O)N(C)c3ccccc32)c1 | > 100 | 37.9 | > 100 | 31.1 | 70.1 |  | 46.7 | 71.1 | 74.6 | 28.3 | 17.3 | 35.6 | 13.4 | 28.5 |  | 19.6 | 5.98 | 27.6 | > 100 | 20.9
COc1ccc(-c2cncn2-c2ccc(-c3nc4cc(OC)c(OC)c(OC)c4s3)cc2)cc1N | > 100 | > 100 | > 100 | > 100 | 9.97 |  | > 100 | > 100 | > 100 | 6.19 | 4.75 | 6.21 | 9.04 | 2.48 |  | 4.44 | 3.38 | 5.73 | > 100 | 2.59
